In patent US12122761B2, “2-azaspiro[3.4]octane derivatives as M4 agonists” (NOVARTIS AG, priority 2019, dated 2024):

Biological target: T1, human cloned CHRM4 receptor (M4_CHO cells) (Homo sapiens, UniProt P08173)
T1 construct: expressed in transfected cells; host or cells: CHO-K1
T1 sequence (P08173 1-479): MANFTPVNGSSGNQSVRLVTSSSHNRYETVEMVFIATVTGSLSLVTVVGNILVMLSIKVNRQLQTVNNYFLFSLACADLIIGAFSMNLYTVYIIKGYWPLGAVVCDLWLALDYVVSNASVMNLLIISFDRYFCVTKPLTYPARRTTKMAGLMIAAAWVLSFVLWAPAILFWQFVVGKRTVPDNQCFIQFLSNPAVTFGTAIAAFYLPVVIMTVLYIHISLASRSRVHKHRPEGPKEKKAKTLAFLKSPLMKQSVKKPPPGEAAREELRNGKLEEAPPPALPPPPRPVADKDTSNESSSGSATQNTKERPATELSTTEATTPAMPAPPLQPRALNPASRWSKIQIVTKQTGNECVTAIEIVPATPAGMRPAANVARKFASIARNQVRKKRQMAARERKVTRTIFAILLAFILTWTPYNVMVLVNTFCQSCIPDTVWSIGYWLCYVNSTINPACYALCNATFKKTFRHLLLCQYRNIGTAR
Test: CHRM4 Ca++ Flux Assay (agonist mode, FDSS 7000EX)
Format: cell-based
Conditions: for Emax: Percent Activity, read-out: M4 FDSS PA; for EC50: geometric mean if tested more than once, read-out: M4 FDSS EC50
Outline: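 Agonist-mode response was expressed as percent of the Carbachol EC100 and fitted with four-parameter nonlinear regression over an 11-point triplicate dose series. Intracellular Ca++ was tracked for 3 min by fluorescent dye in CHO-K1 cells stably expressing human CHRM4. Cells were preincubated 60 min with 20 μM ATP in buffer containing 2.5 mM probenecid.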

Compound	Emax	EC50
CC(C)(O)CCOc1ccccc1C1CCN([C@@H]2CCC3(C2)CN(C(=O)C2COC2)C3)CC1 [Example 7CC, (R)-(6-(4-(2-(3-hydroxy-3-methylbutoxy)phenyl)piperidin-1-yl)-2-azaspiro[3.4]octan-2-yl)(oxetan-3-yl)methanone]	46%	5 nM
O=C(C1COC1)N1CC2(CC[C@@H](N3CCC(c4ccccc4OC[C@@H]4CCOC4)CC3)C2)C1 [Example 7E, oxetan-3-yl((R)-6-(4-(2-(((R)-tetrahydrofuran-3-yl)methoxy)phenyl)piperidin-1-yl)-2-azaspiro[3.4]octan-2-yl)methanone]	59%	3 nM
O=C(C1COC1)N1CC2(CC[C@@H](N3CCC(c4ccccc4OCCOC4COC4)CC3)C2)C1 [Example 7EE, (R)-oxetan-3-yl(6-(4-(2-(2-(oxetan-3-yloxy)ethoxy)phenyl)piperidin-1-yl)-2-azaspiro[3.4]octan-2-yl)methanone]	61%	6 nM
CC(C)COc1ccccc1C1CCN([C@@H]2CCC3(C2)CN(C(=O)C2COC2)C3)CC1 [Example 7F, (R)-(6-(4-(2-isobutoxyphenyl)piperidin-1-yl)-2-azaspiro[3.4]octan-2-yl)(oxetan-3-yl)methanone]	60%	14 nM
O=C(C1COC1)N1CC2(CC[C@@H](N3CCC(c4ccccc4OC4CCCC4)CC3)C2)C1 [Example 7G, (R)-(6-(4-(2-(cyclopentyloxy)phenyl)piperidin-1-yl)-2-azaspiro[3.4]octan-2-yl)(oxetan-3-yl)methanone]	61%	9 nM
O=C(C1COC1)N1CC2(CC[C@@H](N3CCC(c4ccccc4OC4CCC4)CC3)C2)C1 [Example 7H, (R)-(6-(4-(2-cyclobutoxyphenyl)piperidin-1-yl)-2-azaspiro[3.4]octan-2-yl)(oxetan-3-yl)methanone]	70%	4 nM
O=C(C1COC1)N1CC2(CC[C@@H](N3CCC(c4ccccc4OCC4CC4)CC3)C2)C1 [Example 7I, (R)-(6-(4-(2-(cyclopropylmethoxy)phenyl)piperidin-1-yl)-2-azaspiro[3.4]octan-2-yl)(oxetan-3-yl)methanone]	55%	7 nM
CC(C)Oc1ccccc1C1CCN([C@@H]2CCC3(C2)CN(C(=O)C2COC2)C3)CC1 [Example 7K, (R)-(6-(4-(2-isopropoxyphenyl)piperidin-1-yl)-2-azaspiro[3.4]octan-2-yl)(oxetan-3-yl)methanone]	76%	9 nM
O=C(C1COC1)N1CC2(CC[C@@H](N3CCC(c4ccccc4OCCC4COC4)CC3)C2)C1 [Example 7KK, (R)-oxetan-3-yl(6-(4-(2-(2-(oxetan-3-yl)ethoxy)phenyl)piperidin-1-yl)-2-azaspiro[3.4]octan-2-yl)methanone]	47%	2 nM
CC(C)(O)COc1ccccc1C1CCN([C@@H]2CCC3(C2)CN(C(=O)C2COC2)C3)CC1 [Example 7L, (R)-(6-(4-(2-(2-hydroxy-2-methylpropoxy)phenyl)piperidin-1-yl)-2-azaspiro[3.4]octan-2-yl)(oxetan-3-yl)methanone]	58%	20 nM
O=C(C1COC1)N1CC2(CC[C@@H](N3CCC(c4ccccc4OC(F)(F)F)CC3)C2)C1 [Example 12A, (R)-oxetan-3-yl(6-(4-(2-(trifluoromethoxy)phenyl)piperidin-1-yl)-2-azaspiro[3.4]octan-2-yl)methanone]	73%	2 nM

The remaining lines, values ahead:

Emax	EC50	Compound
39%	4 nM	O=C(C1COC1)N1CC2(CC[C@@H](N3CCC(c4ccccc4Oc4nccs4)CC3)C2)C1 [Example 7C, (R)-oxetan-3-yl(6-(4-(2-(thiazol-2-yloxy)phenyl)piperidin-1-yl)-2-azaspiro[3.4]octan-2-yl)methanone]
57%	2 nM	N#CCCOc1ccccc1C1CCN([C@@H]2CCC3(C2)CN(C(=O)C2COC2)C3)CC1 [Example 7D, (R)-3-(2-(1-(2-(oxetane-3-carbonyl)-2-azaspiro[3.4]octan-6-yl)piperidin-4-yl)phenoxy)propanenitrile]
42%	27 nM	O=C(C1COC1)N1CC2(CC[C@@H](N3CCC(c4ccccc4OCCOC(F)(F)F)CC3)C2)C1 [Example 7DD, (R)-oxetan-3-yl(6-(4-(2-(2-(trifluoromethoxy)ethoxy)phenyl)piperidin-1-yl)-2-azaspiro[3.4]octan-2-yl)methanone]
48%	7 nM	O=C(C1COC1)N1CC2(CC[C@@H](N3CCC(c4ccccc4OCCC(F)(F)F)CC3)C2)C1 [Example 7GG, (R)-oxetan-3-yl(6-(4-(2-(3,3,3-trifluoropropoxy)phenyl)piperidin-1-yl)-2-azaspiro[3.4]octan-2-yl)methanone]
50%	19 nM	COC(C)(C)COc1ccccc1C1CCN([C@@H]2CCC3(C2)CN(C(=O)C2COC2)C3)CC1 [Example 7HH, (R)-(6-(4-(2-(2-methoxy-2-methylpropoxy)phenyl)piperidin-1-yl)-2-azaspiro[3.4]octan-2-yl)(oxetan-3-yl)methanone]
50%	9 nM	O=C(C1COC1)N1CC2(CC[C@@H](N3CCC(c4ccccc4OCC4(C(F)(F)F)CC4)CC3)C2)C1 [Example 7II, (R)-oxetan-3-yl(6-(4-(2-((1-(trifluoromethyl)cyclopropyl)methoxy)phenyl)piperidin-1-yl)-2-azaspiro[3.4]octan-2-yl)methanone]
	6 nM	CCOc1ccccc1C1CCN([C@@H]2CCC3(C2)CN(C(=O)C2COC2)C3)CC1 [Example 7J, (R)-(6-(4-(2-ethoxyphenyl)piperidin-1-yl)-2-azaspiro[3.4]octan-2-yl)(oxetan-3-yl)methanone]
49%	2 nM	O=C(C1COC1)N1CC2(CC[C@@H](N3CCC(c4ccccc4OCC(F)F)CC3)C2)C1 [Example 7JJ, (R)-(6-(4-(2-(2,2-difluoroethoxy)phenyl)piperidin-1-yl)-2-azaspiro[3.4]octan-2-yl)(oxetan-3-yl)methanone]
